Laboratory results from US9409908B2 (priority 2012, dated 2016).
Where a name gives a salt, the structure may show the parent alone. Read-outs that look alike come from different tables or passages of the source.

Assays:
[1] = from C=CC[C@H](NC(=O)OC(C)(C)C)c1cc(-c2ccncc2NC(=O)[C@H](C)C=C)ccn1; rcm bond; 12-membered ring; Grubbs II/pTsOH; CH2Cl2; 5.2 mM; 40.0 °C
[2] = rcm bond, Grubbs II, 40.0 °C
[3] = target: purified human Factor XIa (Homo sapiens (Human), UniProt P03951); test: biochemical; assay type: biochemical; details: read-out: Factor XIa Ki
Chain of purified human Factor XIa (P03951 whole entry, looked up): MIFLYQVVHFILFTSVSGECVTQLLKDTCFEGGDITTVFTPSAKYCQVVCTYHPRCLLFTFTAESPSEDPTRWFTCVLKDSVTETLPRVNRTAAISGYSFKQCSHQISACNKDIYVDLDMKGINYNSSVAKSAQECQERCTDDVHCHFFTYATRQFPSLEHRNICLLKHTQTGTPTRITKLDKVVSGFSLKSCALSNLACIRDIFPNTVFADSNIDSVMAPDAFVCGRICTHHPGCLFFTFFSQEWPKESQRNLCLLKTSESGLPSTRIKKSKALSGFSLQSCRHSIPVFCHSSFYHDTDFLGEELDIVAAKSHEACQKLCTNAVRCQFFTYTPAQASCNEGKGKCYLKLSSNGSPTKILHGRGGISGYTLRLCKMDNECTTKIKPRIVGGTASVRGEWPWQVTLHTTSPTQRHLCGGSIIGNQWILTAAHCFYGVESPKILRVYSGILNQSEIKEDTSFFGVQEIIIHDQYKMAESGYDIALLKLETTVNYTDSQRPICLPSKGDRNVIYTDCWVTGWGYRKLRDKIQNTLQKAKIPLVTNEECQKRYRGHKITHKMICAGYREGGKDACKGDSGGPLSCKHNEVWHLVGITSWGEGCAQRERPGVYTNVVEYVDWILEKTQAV
Chain of purified human Factor XIa (P03951 whole entry partner, looked up): as the sequence (P03951 whole entry, looked up) above

[4] = target: purified human plasma kallikrein (Homo sapiens (Human), UniProt P03952); test: biochemical; assay type: biochemical; details: read-out: Plasma Kallikrein Ki
Chain of purified human plasma kallikrein (P03952 whole entry, looked up): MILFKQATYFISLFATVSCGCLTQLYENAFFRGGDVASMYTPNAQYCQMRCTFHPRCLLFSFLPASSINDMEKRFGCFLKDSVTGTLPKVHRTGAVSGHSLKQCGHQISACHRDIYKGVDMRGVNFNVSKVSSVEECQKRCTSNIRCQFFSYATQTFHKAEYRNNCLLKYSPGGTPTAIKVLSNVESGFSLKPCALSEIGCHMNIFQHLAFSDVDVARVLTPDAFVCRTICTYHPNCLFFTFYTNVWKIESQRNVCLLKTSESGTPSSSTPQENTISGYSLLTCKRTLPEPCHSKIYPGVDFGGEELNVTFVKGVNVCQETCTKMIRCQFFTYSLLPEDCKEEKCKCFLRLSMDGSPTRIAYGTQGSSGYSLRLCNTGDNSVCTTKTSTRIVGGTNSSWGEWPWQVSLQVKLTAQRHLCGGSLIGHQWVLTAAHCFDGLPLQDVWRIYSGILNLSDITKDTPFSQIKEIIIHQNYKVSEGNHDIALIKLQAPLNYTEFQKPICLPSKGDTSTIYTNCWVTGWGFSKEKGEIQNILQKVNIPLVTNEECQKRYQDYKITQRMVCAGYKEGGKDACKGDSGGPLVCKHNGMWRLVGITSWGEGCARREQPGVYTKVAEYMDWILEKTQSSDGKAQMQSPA
Chain of purified human plasma kallikrein (P03952 whole entry partner, looked up): as the sequence (P03952 whole entry, looked up) above

In the case of `C[C@@H]1/C=C/C[C@H](NC(=O)OC(C)(C)C)c2cc(ccn2)-c2ccncc2NC1=O`, the ring closure, yield after HPLC [1] is reported as 7.3% and the ring closure, yield of all isomers ([2]; from C=CC[C@H](NC(=O)OC(C)(C)C)c1cc(-c2ccncc2NC(=O)[C@H](C)C=C)ccn1, CH2Cl2, 5.06 mM, 24.0 h) is reported as 7.3%.

`C[C@@H]1/C=C/C[C@H](NC(=O)OC(C)(C)C)c2cc(ccn2)-c2ccccc2NC1=O` gave a ring closure, yield of all isomers ([2]; from C=CC[C@H](NC(=O)OC(C)(C)C)c1cc(-c2ccccc2NC(=O)[C@H](C)C=C)ccn1, dichloromethane, 11.8 mM, 4.5 h) of 78%.

`COC(=O)Nc1ccc2c(c1)C(=O)NC/C=C/C[C@H](NC(=O)OC(C)(C)C)c1cc-2ccn1` showed a ring closure, yield of all isomers ([2]; from C=CCNC(=O)c1cc(NC(=O)OC)ccc1-c1ccnc([C@H](CC=C)NC(=O)OC(C)(C)C)c1, DCM, […], 3.0 h) of 39.4%.

Work on `COC(=O)Nc1ccc2c(c1)NC(=O)[C@H](C)/C=C/C[C@H](NC(=O)OC(C)(C)C)c1nc-2cn1COCC[Si](C)(C)C` yielded a ring closure, yield of all isomers ([2]; from C=CC[C@H](NC(=O)OC(C)(C)C)c1nc(-c2ccc(NC(=O)OC)cc2NC(=O)[C@H](C)C=C)cn1COCC[Si](C)(C)C, dichloromethane, 9.73 mM, 21.5 h) of 74%.

For `C[C@@H]1CCC[C@H](N2CCC(c3c(F)ccc(Cl)c3F)=CC2=O)c2cc(ccn2)-c2c(cccc2C(=O)O)NC1=O` [Example 214, (10R,14S)-14-[4-(3-chloro-2,6-difluorophenyl)-6-oxo-1,2,3,6-tetrahydropyridin-1-yl]-10-methyl-9-oxo-8,16-diazatricyclo[13.3.1.0^2,7]nonadeca-1(19),2(7),3,5,15,17-hexaene-3-carboxylic acid, TFA salt], the Ki [3] was greater than 0.423 µM and the Ki [4] was greater than 13 µM.
